According to patent US20230312605A1, “PYRROLO[2,1-F][1,2,4]TRIAZINES AND PREPARATION AND USES THEREOF” (BioSplice Therapeutics, Inc., priority 2021, published 2023):

Experiments:
[1] = molecular target: recombinant DYRK1A kinase (Homo sapiens (Human), UniProt Q13627); test: DYRK1A kinase assay (Ser/Thr 18 peptide Z-lyte FRET assay); type: biochemical; conditions: recombinant DYRK1A 0.25 µg/mL, ATP 15 µM, Ser/Thr peptide 18 4 µM, one hour at room temperature; table head prints EC50, method says IC50
Summary of the method: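 Z-lyte FRET format: 1 h room-temperature reaction of 15 µM ATP, 4 µM Ser/Thr 18 peptide and 0.25 µg/mL recombinant human DYRK1A, in duplicate over 11 compound concentrations up to 10 µM. IC50 was derived by non-linear regression of percent phosphorylation calculated from coumarin/fluorescein emission ratios.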

[2] = test system: Tau phosphorylation at Thr212 (pThr212) in HEK293T cells transfected with DYRK1A and MAPT; test: phosphoTau (Thr212) AlphaLISA tau phosphorylation cell assay; type: cell-based; conditions: HEK-293T, HEK293T cells transiently transfected with human DYRK1A and MAPT, compound treatment 18-24 hours, read-out: pTau (Thr212) EC50
Method: Representative compounds were screened using the assay procedure for tau phosphorylation activity described below.
HEK293T cells (ATCC, CRL3216) cultured in DMEM (Thermo Fisher Scientific, 10566024) supplemented with 10% FBS (Corning, 35-011-CV) and Penicillin/Streptomycin (Thermo Fisher Scientific, 15140163) were seeded in a 75 cm^2 flask at 8.1 × 10^6 cells/flask. The HEK293T cells were then transiently transfected with 5 µg DYRK1A (NM_001396) human untagged clone (OriGene, SC314641) and 2.5 µg MAPT (441 a.a. Tau gene) (NM_005910) human untagged clone (OriGene, TP313312) using Lipofectamine 3000 (Thermo Fisher Scientific, L30000015) and incubated for 20-30 hours in a humidified incubator at 37° C. and 5% CO^2. Post-incubation, HEK293T cells transfected with the DYRK1A and MAPT expression vectors were harvested and seeded in BioCoat poly-D lysine coated 96-well plates (Corning, 354461) at 3 × 10^4 cells/well.
The above synthesized compounds were screened using the cell assay procedure to assess decreased Tau phosphorylation at Thr212 (pThr212) described below.
Each compound was dissolved in DMSO (Sigma-Aldrich, D8418-100 mL) as a 10 mM stock. 10 mM stocks were serially diluted 1:3, 10-point dose-response curve and added to the cells with a final concentration ranging from 20 µM to 1.1 nM. Cells were treated with compounds in duplicate and incubated for 18-24 hours in a humidified incubator at 37° C. and 5% CO^2.
Following the overnight compound treatment, cells were lysed with 1X Alpha Surefire Ultra Lysis Buffer (Perkin Elmer, ALSU-LB-100ML) complemented with 1X Halt Phosphatase Inhibitor Cocktail (Thermo Fisher Scientific, 78427) and 1X Halt Protease Inhibitor Cocktail (Thermo Fisher Scientific, 78438). Lysates were spun down at 12,000 g for 10 min to remove any cellular debris and 5 µL of lysates were dispensed into a 384-well Opti-Plate (Perkin Elmer, 6007290) for the measurement of Tau phosphorylation in the phosphoTau (Thr212) AlphaLISA assay. Donor antibody, biotinylated HT7Tau (Thermo Fisher Scientific, MN1000B), and acceptor antibody, pThr212Tau (Thermo Fisher Scientific, 44740G) were both added to the cell lysates at a final concentration of 3 nM and incubated for 1 hour at room temperature. Following incubation of the lysates with the donor and acceptor antibodies, anti-rabbit IgG(Fc specific) AlphaLISA acceptor beads (Perkin Elmer, AL104C) were added at a 10 ug/mL final concentration and incubated for 1 hour at room temperature protected from light. Lastly, AlphaScreen streptavidin donor beads (PerkinElmer, 6760002) were added at 40 ug/mL final concentration and incubated for 1 hour at room temperature protected from light. Plates were read at Ex= […], and Em=615 nm on the EnVision Multilabel Plate Reader (Perkin Elmer)
phospho-Tau (Thr212) AlphaLISA signal was used to plot, draw the curve fitting, and determine each compound’s EC50 in Prism (GraphPad).

| SMILES | EC50 [1] [nM] | EC50 [2] [nM] |
| --- | --- | --- |
| FC1(F)CC(Nc2ncc3c(-c4ccc5nccn5c4)ccn3n2)C1 [Compound 23, N-(3,3-Difluorocyclobutyl)-5-(imidazo[1,2-a]pyridin-6-yl)pyrrolo[2,1-f] [1,2,4]triazin-2-amine] | 28 | 794 |
| Cc1nc2ccc(-c3ccn4nc(NC5CCC(F)(F)CC5)ncc34)nc2n1CCF [Compound 1037, N-(4,4-Difluorocyclohexyl)-5-(3-(2-fluoroethyl)-2-methyl-3H-imidazo[4,5-b]pyridin-5-yl)pyrrolo[2,1-f][1,2,4]triazin-2-amine] | 20 | 403 |
| N[C@H]1CC[C@@H](Nc2ncc3c(-c4ccc5ncccc5c4)ccn3n2)CC1 [Compound 1332, cis-N^1-(5-(Quinolin-6-yl)pyrrolo[2,1-f][1,2,4]triazin-2-yl)cyclohexane-1,4-diamine] | 20 | 524 |
| FC1(F)CCC(Nc2ncc3c(-c4ccc5nccn5c4)ccn3n2)CC1 [Compound 43, N-(4,4-Difluorocyclohexyl)-5-(imidazo[1,2-a]pyridin-6-yl)pyrrolo[2,1-f] [1,2,4]triazin-2-amine] | 19 | 504 |
| O[C@H]1C[C@@H](Nc2ncc3c(-c4ccc5nccnc5c4)ccn3n2)C1 [Compound 1724, cis-3-((5-(Quinoxalin-6-yl)pyrrolo [2,1-f] [1,2,4]triazin-2-yl)amino) cyclobutan-1-ol] | 11 | 305 |
| Cc1nc2ccc(-c3ccn4nc(NC5CCC(F)(F)CC5)ncc34)nc2n1CC(F)F [Compound 1108, N-(4,4-Difluorocyclohexyl)-5-(3-(2,2-difluoroethyl)-2-methyl-3H-imidazo [4,5-b]pyridin-5-yl)pyrrolo[2,1-f][1,2,4]triazin-2-amine] | 8 | 126 |

The next lines start with results.

| EC50 [1] [nM] | SMILES | EC50 [2] [nM] |
| --- | --- | --- |
| 3 | CO[C@H]1CC[C@@H](Nc2ncc3c(-c4ccc5nc(C)n(CC(F)F)c5n4)ccn3n2)CC1 [Compound 1111, 5-(3-(2,2-Difluoroethyl)-2-methyl-3H-imidazo[4,5-b]pyridin-5-yl)-N-(cis-4-methoxycyclohexyl)pyrrolo[2,1-f][1,2,4]triazin-2-amine] | 71 |
| 5 | Cc1nc2ccc(-c3ccn4nc(NCC(C)(C)F)ncc34)nc2n1C(C)C [Compound 1801, N-(2-Fluoro-2-methylpropyl)-5-(3-isopropyl-2-methyl-3H-imidazo[4,5-b]pyridin-5-yl)pyrrolo [2,1-f][1,2,4]triazin-2-amine] | 152 |
| 11 | Cc1nc2ncc(-c3ccn4nc(NCC(C)(C)F)ncc34)cc2n1C(C)C [Compound 571, N-(2-Fluoro-2-methylpropyl)-5-(1-isopropyl-2-methyl-1H-imidazo[4,5-b]pyridin-6-yl)pyrrolo[2,1-f] [1,2,4]triazin-2-amine] | 725 |
| 11 | Cc1nc2ncc(-c3ccn4nc(NCC(C)(C)F)ncc34)cc2n1C1CCOCC1 [Compound 784, N-(2-Fluoro-2-methylpropyl)-5-(2-methyl-1-(tetrahydro-2H-pyran-4-yl)-1H-imidazo[4,5-b]pyridin-6-yl)pyrrolo[2,1-f] [1,2,4]triazin-2-amine] | 516 |
